The values that follow come from patent US20060104902A1, “Method of preselection patients for anti-VEGF, anti-HIF-1 or anti-thioredoxin therapy” (priority 2004, published 2006).

One test has as its system HT-29 xenografts. As to conditions: up to three hours post-treatment; cited from earlier work.
The test system of the next test is advanced malignancies. As to conditions: cited from earlier work.
Another test concerns HT-29 tumor xenografts. In words: DCE-MRI with Gd-BSA: tumor vascular permeability and vascular volume fraction. The class given is in vivo, SCID mice.
For a further test, the system named is human tumor xenografts. As to conditions: cited from earlier work.
The subject of a further test is mouse VEGF (mVEGF). In words: Mouse VEGF ELISA in tumor and plasma of HT-29 xenograft mice after PX-12. In kind it is in vivo, SCID mice. The procedure: (§1) FIG. 12. Human VEGF levels (pg/μg protein) in HT-29 xenografts, and VEGF levels (pg/ml) in plasma after treatment with PX-12, 25 mg/kg ip (n=4 mice per time point).
(§2) VEGF detection. Plasma was collected into EDTA tubes and tumors were removed and immediately snap frozen in liquid nitrogen. Tumors were then placed in buffer (10 mM Tris/HCl pH 7.4, and 100 mM NaCl) and homogenized using a PowerGen 125, Fisher Scientific, Pittsburgh, Pa. The suspension was then centrifuged twice at 8,000×g at 4° C. for 15 min. Protein was quantitated in supernatant using the Pierce BCA assay. VEGF levels were quantitated in plasma and tumor lysates using both human (hVEGF) and mouse VEGF […] ELISAs (R&D systems, Minneapolis, Minn.), according the manufactures' instructions.
(§3) This example illustrates the effects of PX-12 on plasma and tumor VEGF levels, as measured by ELISA assays. In these xenografts, hVEGF is derived from the tumor and mVEGF from the host vasculature and stromal tissue, resulting in considerably higher hVEGF than mVEGF in the tumor. Although the endothelium is mouse derived, hVEGF inhibition in xenograft models has been reported to cause obliteration of the host tumor vasculature, implying that hVEGF is active at mouse VEGF receptors VEGFRI (Flt-i) and VEGFR2 (KDR). Therefore, levels of both mouse and human VEGF were measured in the tumor and plasma samples collected.
Some tumors are reported to secrete VEGF into the plasma which can then act on endothelial cells in a paracrine manner or on tumor cells in an autocrine loop if the tumor expresses the VEGF receptors VEGFRI or VEGFR2. Plasma hVEGF expression was too low to be detected in the plasma from the HT-29 xenografts.
Background: In an ELISA, binding on a coated surface is turned into a signal by an enzyme label.

In a further test the test system is human VEGF (hVEGF). Nature of the test: Human VEGF ELISA in HT-29 xenograft tumors after PX-12. In kind it is in vivo, SCID mice. As to conditions: PX-12 25 mg/kg ip. The procedure: as §1, §2, §3
A general note: A xenograft is tissue or cells of one species grown in another, often human tumour cells in immunodeficient mice.

Another test concerns the target T1, Trx-1 (Homo sapiens, UniProt P10599).
T1 sequence (P10599 1-105): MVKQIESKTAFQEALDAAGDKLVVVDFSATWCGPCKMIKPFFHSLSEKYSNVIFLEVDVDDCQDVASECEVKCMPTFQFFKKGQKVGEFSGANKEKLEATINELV
As to conditions: cited from earlier work.

The subject of a further test is current tumor model. Particulars: by 24 h post-treatment; cited from earlier work.
Another test has as its system hypoxic cells. As to conditions: cited from earlier work.

For `Cc1ccc2c(=O)c3cccc(CC(=O)O)c3oc2c1C` [DMXAA], in the test on HT-29 xenografts, the tumor perfusion entry was “considerably decreased”.

Consider `CCC(C)SSc1ncc[nH]1` (stereo not shown) [PX-12, 1-methylpropyl 2-imidazolyl disulfide], for which the “circulating levels of VEGF in patients” value in the test with advanced malignancies (as soon as 4 hours post drug administration) is “decrease”. For the same molecule, the “antitumor activity in phase I study” value in the test on advanced malignancies (patients with advanced malignancies) was “revealed antitumor activity”. Further, the figures for the “mean reduction in permeability” value with HT-29 tumor xenografts (12 hours after PX-12 treatment) and in the test on HT-29 tumor xenografts (24 h post-treatment with PX-12) were 59.2% and 51.6%, respectively. For the same molecule, in the test with HT-29 tumor xenografts (48 hours after PX-12, not significant), the “change in permeability (return to control values)” value is recorded as “+3.4±17.6%”. Further, in the test with HT-29 tumor xenografts (any time point (2-48 h) after PX-12), the “vascular volume fraction of the tumor, control vs treated” value was “not significantly modified”. The “mean reduction in tumor blood vessel permeability vs untreated tumors” value with HT-29 tumor xenografts (within 2 hours after PX-12 injection) was 63.4%. Also, in the test with human tumor xenografts (human tumor xenografts in SCID mice), the “in vivo antitumor activity” value is on record as “in vivo antitumor activity”. Also, the “expression of HIF 1α and VEGF and microvessel density” value in the test on human tumor xenografts (xenograft tumors) was “significant decreases”. In the test on mouse VEGF (mVEGF) (2 hours post treatment, PX-12 25 mg/kg ip), the “mouse plasma VEGF levels” value is recorded as “showed a decrease”. Further, in the test on mouse VEGF (mVEGF) (after 24 h of PX-12 treatment, 25 mg/kg ip, P<0.02), the “mouse VEGF in plasma” value was “significant decrease”. The “mouse VEGF in tumor” value with mouse VEGF (mVEGF) (starting at 2 h, not statistically significant at any time point, PX-12 25 mg/kg ip) was “only a small decrease”. Moreover, the “tumor VEGF levels” value in the test on human VEGF (hVEGF) (2 or 12 hours post-treatment) is reported as “no significant change”. The “hVEGF levels within the tumors” value in the test with human VEGF (hVEGF) (after 24 hours of treatment) is listed as “significant decrease”. The “concentrations at which active as a Trx-1 inhibitor” value on Trx-1 was “submicromolar”.

Turning to “Avastin: human anti-VEGF antibody Avastin (Bevacizumab, Genentech) [reference compound]”, the “vascular volume fraction VVf (%)” value with HT-29 tumor xenografts (1 h post-Tx, HT-29, mean) is listed as 4.4%. Moreover, in the test with HT-29 tumor xenografts (one hour after injection, 20 μl/30 g i.v.), the “decrease in vascular volume fraction” value is reported as 31.5%. The “decrease in vascular permeability” value in the test on HT-29 tumor xenografts (within an hour of injection, 20 μl/30 g i.v.) stood at 75%.

`Cc1[nH]c(/C=C2\C(=O)Nc3ccccc32)c(C)c1CCC(=O)O` [SU6668]: the fractional plasma volume result in the test with current tumor model was “decrease”.

Regarding `COc1ccc(/C=C\c2cc(OC)c(OC)c(OC)c2)cc1OP(=O)(O)O` [CA4P, combretastatin A4 phosphate], in the test with HT-29 xenografts, the tumor perfusion entry is given as “only a small decrease”.

On to `C[N+](C)([O-])CCCNc1c2ccccc2nc2cccc([N+](=O)[O-])c12` [aliphatic N-oxide of nitacrine], for which the “selectivity for hypoxic cells” value with hypoxic cells is listed as “approximately 1500 fold”.
